In patent US10800792B2, “Inhibitors of Bruton's tyrosine kinase and method of their use” (JANSSEN PHARMACEUTICA NV, priority 2015, dated 2020):

Molecular target: unphosphorylated-BTK kinase domain (UP-BTK), GST-tagged human BTK (389-659aa) (Homo sapiens (Human), UniProt Q06187)
Assay: BTK kinase Lanthascreen binding assay
Conditions: pIC50 = negative log of the IC50 in molar, 60 minutes incubation, 50 nM Tracer 236; for IC50: read-out: BTK_I_binding pIC50 (converted)
Procedure, shortened: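 Values are pIC50, i.e. negative log of IC50 in molar, derived from concentration–response fitting. Each compound competes with a fluorescently labelled tracer for the unphosphorylated kinase domain.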

Chain of unphosphorylated-BTK kinase domain (UP-BTK), GST-tagged human BTK (389-659aa) (Q06187 389-659): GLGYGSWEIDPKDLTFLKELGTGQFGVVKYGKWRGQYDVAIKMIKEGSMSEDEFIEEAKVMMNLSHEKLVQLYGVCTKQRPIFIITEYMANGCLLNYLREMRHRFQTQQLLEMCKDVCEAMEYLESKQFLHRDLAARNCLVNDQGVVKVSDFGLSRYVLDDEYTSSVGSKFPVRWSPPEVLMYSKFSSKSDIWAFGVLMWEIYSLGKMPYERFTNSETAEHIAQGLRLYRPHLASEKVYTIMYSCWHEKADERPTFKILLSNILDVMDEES

| Compound | BTK_I_binding pIC50 | IC50 [nM] |
| --- | --- | --- |
| C=CC(=O)N1CC[C@@H](NC(=O)c2sc3nccc4c3c2NC(=O)N4c2ccc(Oc3c(F)cccc3F)cc2C)C1 [Example 17, (R)—N-(1-Acryloylpyrrolidin-3-yl)-5-(4-(2,6-difluorophenoxy)-2-methylphenyl)-4-oxo-4,5-dihydro-3H-1-thia-3,5,8-triazaacenaphthylene-2-carboxamide] | 7.7 |  |
| Cc1cc(Oc2ccccc2)ccc1N1C(=O)Nc2c(C(=O)N[C@@H]3CCCN(C(=O)/C(C#N)=C/C4(C)COC4)C3)sc3nccc1c23 [Example 21, (R,E)-N-(1-(2-cyano-3-(3-methyloxetan-3-yl)acryloyl)piperidin-3-yl)-5-(2-methyl-4-phenoxyphenyl)-4-oxo-4,5-dihydro-3H-1-thia-3,5,8-triazaacenaphthylene-2-carboxamide] | 7.7 |  |
| C=CC(=O)N1CC[C@@H](NC(=O)c2sc3nccc4c3c2NC(=O)N4c2ccc(Oc3cccc4ccoc34)cc2C)C1 [Example 22, (R)—N-(1-Acryloylpyrrolidin-3-yl)-5-(4-(benzofuran-7-yloxy)-2-methylphenyl)-4-oxo-4,5-dihydro-3H-1-thia-3,5,8-triazaacenaphthylene-2-carboxamide] | 7.4 |  |
| Cc1cc(Oc2ccccc2)ccc1N1C(=O)Nc2c(C(=O)N[C@@H]3CCCN(C(=O)/C=C/CN)C3)sc3nccc1c23 [Example 27, (R,E)-N-(1-(4-Aminobut-2-enoyl)piperidin-3-yl)-5-(2-methyl-4-phenoxyphenyl)-4-oxo-4,5-dihydro-3H-1-thia-3,5,8-triazaacenaphthylene-2-carboxamide] |  | 50.1 |
| Cc1cc(Oc2ccccc2)ccc1N1C(=O)Nc2c(C(=O)NC3COCCN(C#N)C3)sc3nccc1c23 (centres unmarked) [Example 31, N-(4-Cyano-1,4-oxazepan-6-yl)-5-(2-methyl-4-phenoxyphenyl)-4-oxo-4,5-dihydro-3H-1-thia-3,5,8-triazaacenaphthylene-2-carboxamide] |  | 20 |
| C=CC(=O)N1CCC[C@@H](NC(=O)c2sc3nccc4c3c2NC(=O)N4c2ccc(OC3CCCCC3)cc2C)C1 [Example 32, (R)—N-(1-Acryloylpiperidin-3-yl)-5-(4-(cyclohexyloxy)-2-methylphenyl)-4-oxo-4,5-dihydro-3H-1-thia-3,5,8-triazaacenaphthylene-2-carboxamide] |  | 50.1 |
| C=CC(=O)N1CCC[C@@H](NC(=O)c2sc3nccc4c3c2NC(=O)N4c2ccc(OC(C)C)cc2C)C1 [Example 33, (R)—N-(1-Acryloylpiperidin-3-yl)-5-(4-isopropoxy-2-methylphenyl)-4-oxo-4,5-dihydro-3H-1-thia-3,5,8-triazaacenaphthylene-2-carboxamide] |  | 31.6 |
| C=CC(=O)N1C[C@@H](F)[C@@H](NC(=O)c2sc3nccc4c3c2NC(=O)N4c2ccc(Oc3ccccc3)cc2C)C1 [Example 37, N-((3S,4R)-1-Acryloyl-4-fluoropyrrolidin-3-yl)-5-(2-methyl-4-phenoxyphenyl)-4-oxo-4,5-dihydro-3H-1-thia-3,5,8-triazaacenaphthylene-2-carboxamide] | 7.6 |  |
| C=CC(=O)N1CC[C@@H](NC(=O)c2sc3nccc4c3c2NC(=O)N4c2ccc(OC3CCCCC3)cc2C)C1 [Example 39, (R)—N-(1-Acryloylpyrrolidin-3-yl)-5-(4-(cyclohexyloxy)-2-methylphenyl)-4-oxo-4,5-dihydro-3H-1-thia-3,5,8-triazaacenaphthylene-2-carboxamide] | 7.4 |  |
| COC(C)(C)/C=C(\C#N)C(=O)N1CCC[C@@H](NC(=O)c2sc3nccc4c3c2NC(=O)N4c2ccc(Oc3ccccc3)cc2C)C1 [Example 40, (R,E)-N-(1-(2-Cyano-4-methoxy-4-methylpent-2-enoyl)piperidin-3-yl)-5-(2-methyl-4-phenoxyphenyl)-4-oxo-4,5-dihydro-3H-1-thia-3,5,8-triazaacenaphthylene-2-carboxamide] | 7.6 |  |
| N#C/C(=C\C1CC1)C(=O)N1CCC[C@@H](NC(=O)c2sc3nccc4c3c2NC(=O)N4c2ccc(Oc3ccccc3)cc2)C1 [Example 47, (R,E)-N-(1-(2-Cyano-3-cyclopropylacryloyl)piperidin-3-yl)-4-oxo-5-(4-phenoxyphenyl)-4,5-dihydro-3H-1-thia-3,5,8-triazaacenaphthylene-2-carboxamide] | 8.0 |  |
| C=CC(=O)N1CCC[C@@H](NC(=O)c2sc3nccc4c3c2NC(=O)N4c2ccc(OC3CC3)cc2C)C1 [Example 51, (R)—N-(1-Acryloylpiperidin-3-yl)-5-(4-cyclopropoxy-2-methylphenyl)-4-oxo-4,5-dihydro-3H-1-thia-3,5,8-triazaacenaphthylene-2-carboxamide] | 7.5 |  |
| Cc1cc(Oc2c(F)cccc2F)ccc1N1C(=O)Nc2c(C(=O)N[C@@H]3CCCN(C)C3)sc3nccc1c23 [Example 52, (R)-5-(4-(2,6-Difluorophenoxy)-2-methylphenyl)-N-(1-methylpiperidin-3-yl)-4-oxo-4,5-dihydro-3H-1-thia-3,5,8-triazaacenaphthylene-2-carboxamide] | 7.0 |  |

Other lines, results leading:

| BTK_I_binding pIC50 | IC50 [nM] | Compound |
| --- | --- | --- |
| 7.4 |  | C=CC(=O)N1C[C@H](NC(=O)c2sc3nccc4c3c2NC(=O)N4c2ccc(Oc3ccccc3)cc2C)C[C@H](OC)C1 [Example 14, N-((3R,5S)-1-Acryloyl-5-methoxypiperidin-3-yl)-5-(2-methyl-4-phenoxyphenyl)-4-oxo-4,5-dihydro-3H-1-thia-3,5,8-triazaacenaphthylene-2-carboxamide] |
| 7.6 |  | C=CC(=O)N1CCC[C@@H](NC(=O)c2sc3nccc4c3c2NC(=O)N4c2ccc(Oc3ccccc3)cc2Cl)C1 [Example 15, (R)—N-(1-Acryloylpiperidin-3-yl)-5-(2-chloro-4-phenoxyphenyl)-4-oxo-4,5-dihydro-3H-1-thia-3,5,8-triazaacenaphthylene-2-carboxamide] |
| 7.3 |  | C=CC(=O)N1CCC[C@@H](NC(=O)c2sc3nccc4c3c2NC(=O)N4c2ccc(Oc3cccc4ccoc34)cc2C)C1 [Example 16, (R)—N-(1-Acryloylpiperidin-3-yl)-5-(4-(benzofuran-7-yloxy)-2-methylphenyl)-4-oxo-4,5-dihydro-3H-1-thia-3,5,8-triazaacenaphthylene-2-carboxamide] |
| 8.2 |  | C=CC(=O)N1CCC[C@@H](NC(=O)c2sc3nccc4c3c2NC(=O)N4c2ccc(Oc3ccccc3)cc2)C1 [Example 18, (R)—N-(1-Acryloylpiperidin-3-yl)-4-oxo-5-(4-phenoxyphenyl)-4,5-dihydro-3H-1-thia-3,5,8-triazaacenaphthylene-2-carboxamide] |
|  | 63.1 | C=CC(=O)N1CCC[C@@H](NC(=O)c2sc3nccc4c3c2NC(=O)N4c2ccc(Oc3ccccc3CC)cc2C)C1 [Example 19, (R)—N-(1-Acryloylpiperidin-3-yl)-5-(4-(2-ethylphenoxy)-2-methylphenyl)-4-oxo-4,5-dihydro-3H-1-thia-3,5,8-triazaacenaphthylene-2-carboxamide] |
| 7.4 |  | C=CC(=O)N1CCC[C@@H](NC(=O)c2sc3nccc4c3c2NC(=O)N4c2c(C)cc(Oc3ccccc3)cc2F)C1 [Example 20, (R)—N-(1-Acryloylpiperidin-3-yl)-5-(2-fluoro-6-methyl-4-phenoxyphenyl)-4-oxo-4,5-dihydro-3H-1-thia-3,5,8-triazaacenaphthylene-2-carboxamide] |
|  | 50.1 | C=C(Cl)C(=O)N1CCC[C@@H](NC(=O)c2sc3nccc4c3c2NC(=O)N4c2ccc(Oc3ccccc3)cc2C)C1 [Example 26, (R)—N-(1-(2-Chloroacryloyl)piperidin-3-yl)-5-(2-methyl-4-phenoxyphenyl)-4-oxo-4,5-dihydro-3H-1-thia-3,5,8-triazaacenaphthylene-2-carboxamide] |
| 7.6 |  | Cc1cc(Oc2ccccc2)ccc1N1C(=O)Nc2c(C(=O)N[C@@H]3CCN(C(=O)/C=C/CO)C3)sc3nccc1c23 [Example 30, (R,E)-N-(1-(4-Hydroxybut-2-enoyl)pyrrolidin-3-yl)-5-(2-methyl-4-phenoxyphenyl)-4-oxo-4,5-dihydro-3H-1-thia-3,5,8-triazaacenaphthylene-2-carboxamide] |
|  | 20 | C=CC(=O)N1C[C@H](NC(=O)c2sc3nccc4c3c2NC(=O)N4c2ccc(Oc3ccccc3)cc2C)[C@@H](F)C1 [Example 36, N-((3S,4S)-1-Acryloyl-4-fluoropyrrolidin-3-yl)-5-(2-methyl-4-phenoxyphenyl)-4-oxo-4,5-dihydro-3H-1-thia-3,5,8-triazaacenaphthylene-2-carboxamide] |
|  | 50.1 | Cc1cc(Oc2ccccc2)ccc1N1C(=O)Nc2c(C(=O)N[C@@H]3CCCN(C(=O)/C(C#N)=[13CH]/C4CC4)C3)sc3nccc1c23 [Example 41, (R,E)-N-(1-(2-Cyano-3-^13C-cyclopropylacryloyl)piperidin-3-yl)-5-(2-methyl-4-phenoxyphenyl)-4-oxo-4,5-dihydro-3H-1-thia-3,5,8-triazaacenaphthylene-2-carboxamide] |
| 7.0 |  | CC#CC(=O)N1CCC[C@@H](NC(=O)c2sc3nccc4c3c2NC(=O)N4c2ccc(Oc3ccccc3)cc2C)C1 [Example 42, (R)—N-(1-(But-2-ynoyl)piperidin-3-yl)-5-(2-methyl-4-phenoxyphenyl)-4-oxo-4,5-dihydro-3H-1-thia-3,5,8-triazaacenaphthylene-2-carboxamide] |
| 7.1 |  | C=CC(=O)N1CC[C@@H](NC(=O)c2sc3nccc4c3c2NC(=O)N4c2c(C)cc(Oc3ccccc3)cc2F)C1 [Example 45, (R)—N-(1-Acryloylpyrrolidin-3-yl)-5-(2-fluoro-6-methyl-4-phenoxyphenyl)-4-oxo-4,5-dihydro-3H-1-thia-3,5,8-triazaacenaphthylene-2-carboxamide] |
| 6.9 |  | C=C(F)C(=O)N1CCC[C@@H](NC(=O)c2sc3nccc4c3c2NC(=O)N4c2ccc(Oc3ccccc3)cc2C)C1 [Example 48, (R)—N-(1-(2-Fluoroacryloyl)piperidin-3-yl)-5-(2-methyl-4-phenoxyphenyl)-4-oxo-4,5-dihydro-3H-1-thia-3,5,8-triazaacenaphthylene-2-carboxamide] |
